Values of other authors, collected in PubChem BioAssay AID1259410 (Chemical Carcinogenesis Research Information System (CCRIS), 2018).

Tested on: rodent tumor promotion studies, tumor incidence
Assay: CCRIS tumor promotion studies

For `CC1(OO)C=C(C(C)(C)C)C(=O)C(C(C)(C)C)=C1`, the outcome (Carcinogen: 7,12-DIMETHYLBENZ[A]ANTHRACENE, 57-97-6, Doses [Carcinogen]: 20 NMOL IN 200 µL ACETONE ONCE, Doses [Promoter]: 0, 8 UMOL 2/WK FOR 50 WK BEGINNING 10 D POST CARCINOGEN DOSE (STUDY DURATION: 52 WK), Route [Carcinogen]: DERMAL, Route [Promoter]: DERMAL, Species: MOUSE, Strain/Sex: SENCAR/FEMALE) is listed as “skin: papilloma or carcinoma” and the outcome (Carcinogen: 7,12-DIMETHYLBENZ[A]ANTHRACENE, 57-97-6, Doses [Carcinogen]: 20 NMOL IN 200 µL ACETONE ONCE, Doses [Promoter]: 0, 20 UMOL 2/WK FOR 50 WK BEGINNING 10 D POST CARCINOGEN DOSE (STUDY DURATION: 52 WK), Route [Carcinogen]: DERMAL, Route [Promoter]: DERMAL, Species: MOUSE, Strain/Sex: SENCAR/FEMALE) is listed as “skin: papilloma or carcinoma”.
For `CC1=C2C(=CO[C@H](C)[C@H]2C)C(=O)C(C(=O)O)=C1O`, the outcome (Carcinogen: OCHRATOXIN A, 303-47-9, Doses [Carcinogen]: 0.25 ML OF A 50 PPM SOLUTION 2/WK FOR 20 WK, Doses [Promoter]: 0, 0.25 ML OF 50 PPM SOLUTION 2/WK FOR 20 WK ADMINISTERED SIMULTANEOUSLY WITH CARCINOGEN TREATMENT (STUDY DURATION: 20 W, Route [Carcinogen]: GAVAGE, Route [Promoter]: GAVAGE, Species: MOUSE, Strain/Sex: ALBINO/MALE,FEMALE) is listed as “kidney: tumor” and the outcome (Carcinogen: OCHRATOXIN A, 303-47-9, Doses [Carcinogen]: 0.25 ML OF A 50 PPM SOLUTION 2/WK FOR 20 WK, Doses [Promoter]: 0, 0.25 ML OF A 50 PPM SOLUTION ADMINISTERED SIMULTANEOUSLY WITH CARCINOGEN DOSE 2/WK FOR 20 WK (STUDY DURATION: 20 WK), Route [Carcinogen]: GAVAGE, Route [Promoter]: GAVAGE, Species: MOUSE, Strain/Sex: SWISS/MALE,FEMALE) is listed as “kidney: tumor”.
In the case of `Cc1ccccc1O`, the outcome (Carcinogen: 7,12-DIMETHYLBENZ(A)ANTHRACENE, Doses [Carcinogen]: DERMAL, Route [Carcinogen]: DERMAL, Route [Promoter]: DERMAL, Species: MOUSE, Strain/Sex: FEMALE) is listed as “integumentary system (skin)”.
In the case of `[O-][Cl+3]([O-])([O-])O`, the outcome (Carcinogen: N-bis(2-hydroxypropyl)nitrosamine, 53609-64-6, Doses [Carcinogen]: 0.08 and 0.2% in drinking water for 4 wks at 7-10 wks of age, study duration to 39 wk of age, Doses [Promoter]: In utero (0.1% in diet of dams) and then in drinking water of weaned offspring for 2 wk. Dimethylbenz[a]anthracene, 57-9, Route [Carcinogen]: Oral, Route [Promoter]: In utero and in drinking water, Species: Rat, Strain/Sex: F344/Female (23, 16/group)) is given as “thyroid: no increase in tumors even though increased follicular cell hyperplasia” and the outcome (Carcinogen: N-bis(2-hydroxypropyl)nitrosamine, 53609-64-6, Doses [Carcinogen]: 0.08 and 0.2% in drinking water for 4 wks at 7-10 wks of age, study duration to 39 wk of age, Doses [Promoter]: In utero (0.1% in diet of dams) and then in drinking water of weaned offspring for 2 wk, Route [Carcinogen]: Oral, Route [Promoter]: In utero and in drinking water, Species: Rat, Strain/Sex: F344/Male (12-15/group)) is given as “none found”.
For `CC(=O)Nc1ccc2c(c1)Cc1ccccc1-2`, the outcome (Carcinogen: DIETHYLNITROSAMINE, 55-18-5, Doses [Carcinogen]: 50 MG/KG ONCE 24 HR AFTER 2/3 PARTIAL HEPATECTOMY, Doses [Promoter]: 0, 0.02% IN DIET FOR 1 MO BEGINNING 1 WK POST CARCINOGEN DOSE (STUDY DURATION: 8 MO), Route [Carcinogen]: INTRAPERITONEAL, Route [Promoter]: ORAL, Species: RAT, Strain/Sex: WISTAR/MALE) is given as “liver: carcinoma” and the outcome (Carcinogen: DIETHYLNITROSAMINE, 55-18-5, Doses [Carcinogen]: 200 MG/KG BW IN 0.9% SALINE ONCE, Doses [Promoter]: 0, 0.05 MMOL/KG BW IN POLYETHYLENE GLYCOL FOR 5 D BEGINNING 1 WK POST CARCINOGEN DOSE, 70% PARTIAL HEPATECTOMY PERFORMED, Route [Carcinogen]: INTRAPERITONEAL, Route [Promoter]: GAVAGE, Species: RAT, Strain/Sex: SPRAGUE-DAWLEY/MALE) is given as “liver: hepatocellular carcinoma”.
In the case of `CCCCCCCCCCCCCC1(CC(=O)OC2C(C)C3(O)C(C=C(CO)CC4(O)C(=O)C(C)=CC43)C3C(C)(C)C23OC(C)=O)OCC(C)(C)N1[O]` (configuration not stated), the outcome (Carcinogen: 7,12-DIMETHYLBENZ[A]ANTHRACENE, 57-97-6, Doses [Carcinogen]: 100 NMOL ONCE, Doses [Promoter]: 0, 5 NMOL 2/WK FOR 36 WK BEGINNING 1 WK POST CARCINOGEN DOSE (STUDY DURATION: 25 WK), Route [Carcinogen]: DERMAL, Route [Promoter]: DERMAL, Species: MOUSE, Strain/Sex: NMRI/FEMALE) is given as “skin: tumor”.
In the case of `COc1ccc(O)cc1`, the outcome (Carcinogen: DIETHYLNITROSAMINE, 55-18-5, N-METHYLNITROSOUREA, 684-93-5, 1,2-DIMETHYLHYDRAZINE, 540-73-8, N-BUTYL-N-(4-HYDROXYBUTYL)N, Carcinogen: DIETHYLNITROSAMINE, 55-18-5, N-METHYLNITROSOUREA, 684-93-5, 1,2-DIMETHYLHYDRAZINE, 540-73-8, N-BUTYL-N-(4-HYDROXYBUTYL)N, Doses [Carcinogen]: 100 MG/KG BW DEN ONCE FOLLOWED BY 20 MG/KG BW MNU 2/WK FOR 2 WK THEN 40 MG/KG BW DMH 2/WK FOR THE NEXT 2 WK, 0.05% BBN I, Doses [Promoter]: 0, 0.4% IN DIET FOR 24 WK BEGINNING POST CARCINOGEN TREATMENT (STUDY DURATION: 28 WK), Route [Carcinogen]: INTRAPERITONEAL, INTRAPERITONEAL, SUBCUTANEOUS, ORAL, Route [Carcinogen]: INTRAPERITONEAL, INTRAPERITONEAL, SUBCUTANEOUS, ORAL, Route [Promoter]: ORAL, Species: RAT, Strain/Sex: F344/MALE) is listed as “forestomach: papilloma”.
In the case of `S=c1nc[nH]c2nc[nH]c12`, the outcome (Carcinogen: UV IRRADIATION, Doses [Carcinogen]: 0.53 J/CM2 INCREASED BY 20% EVERY 2 WK TO 1.60 J/CM2 AND MAINTAINED AT 1.60 J/CM2 UNTIL DEATH, ADMINISTERED 5 D/WK FOR 1, Doses [Promoter]: 0, 15 UG/G BEGINNING 2 WK POST FIRST CARCINOGEN DOSE ADMINISTERED 2 HR PRIOR TO EACH CARCINOGEN DOSE (STUDY DURATION: 30, Route [Carcinogen]: DERMAL, Route [Promoter]: INTRAPERITONEAL, Species: MOUSE, Strain/Sex: SKH/HRL/FEMALE) is listed as “skin: tumor”.
In the case of `CNC(=O)Oc1ccccc1OC(C)C`, the outcome (Carcinogen: 7,12-DIMETHYLBENZ[A]ANTHRACENE, 57-97-6, Doses [Carcinogen]: 52 UG IN 100 µL ACETONE ONCE, Doses [Promoter]: 0, 100 MG/KG BW IN 100 µL ACETONE 3/WK FOR 51 WK BEGINNING 1/WK POST CARCINOGEN DOSE (STUDY DURATION: 52 WK), Route [Carcinogen]: DERMAL, Route [Promoter]: DERMAL, Species: MOUSE, Strain/Sex: SWISS/FEMALE) is given as “skin: tumor” and the outcome (Carcinogen: 7,12-DIMETHYLBENZ[A]ANTHRACENE, 57-97-6, Doses [Carcinogen]: 52 UG IN 100 µL ACETONE ONCE, Doses [Promoter]: 0, 100 MG/KG BW IN 100 µL ACETONE 3/WK FOR 51 WK BEGINNING 1 WK POST CARCINOGEN DOSE (STUDY DURATION: 52 WK), Route [Carcinogen]: DERMAL, Route [Promoter]: DERMAL, Species: MOUSE, Strain/Sex: SWISS/MALE) is given as “skin: tumor”.
For `CC[C@H](C)[C@H](NC(=O)[C@H](CO)NC(=O)[C@H](CC(N)=O)NC(=O)[C@H](CC(C)C)NC(=O)[C@H](Cc1ccc(O)cc1)NC(=O)[C@H](CCCCN)NC(=O)[C@H](CCCCN)NC(=O)[C@@H](NC(=O)[C@H](C)NC(=O)[C@H](CCSC)NC(=O)[C@H](CCC(N)=O)NC(=O)[C@H](CCCCN)NC(=O)[C@H](CCCNC(=N)N)NC(=O)[C@H](CC(C)C)NC(=O)[C@H](CCCNC(=N)N)NC(=O)[C@@H](NC(=O)[C@H](Cc1ccc(O)cc1)NC(=O)[C@H](CC(N)=O)NC(=O)[C@H](CC(=O)O)NC(=O)[C@@H](NC(=O)[C@H](Cc1ccccc1)NC(=O)[C@@H](NC(=O)[C@H](C)NC(=O)[C@H](CC(=O)O)NC(=O)[C@H](CO)NC(=O)[C@@H](N)Cc1c[nH]cn1)C(C)C)[C@@H](C)O)[C@@H](C)O)C(C)C)C(=O)N[C@@H](CC(C)C)C(=O)N[C@@H](CC(N)=O)C(=O)O`, the outcome (Carcinogen: AZOXYMETHANE, 25843-45-2, Doses [Carcinogen]: 7.4 MG/KG BW IN 0.9% SALINE 1/WK FOR 10 WK, Doses [Promoter]: 0, 20 UG/KG BW IN OLIVE OIL 1/2 D FOR DURATION OF STUDY (STUDY DURATION: 45 WK), Route [Carcinogen]: SUBCUTANEOUS, Route [Promoter]: SUBCUTANEOUS, Species: RAT, Strain/Sex: WISTAR/MALE) is given as “colon: tumor”.
In the case of `CC(C)(c1ccc(O)cc1)c1ccc(O)cc1`, the outcome (Carcinogen: 7,120Dimethylbenzanthracene (57-97-6), Doses [Carcinogen]: 30 mg/kg bw once to female offspring at 50 days of age, Doses [Promoter]: 0, 25, 250 ug/kg daily for 18 d from d 2 to d 20 postpartum to dams, Doses [Promoter]: 0, 25, 250 ug/kg daily for 18 d from d 2 to d 20 postpartum to dams, Route [Carcinogen]: Intragastric gavage, Route [Promoter]: Intragastric gavage, Species: Rat, Strain/Sex: Sprague Dawley CD/Female) is listed as “breast tumors: incidence increased in offspring of 250 ug/kg dams; latent period”.
For `CSCC[C@H](NC(=O)[C@H](CC(C)C)NC(=O)CNC(=O)[C@H](Cc1ccccc1)NC(=O)[C@H](Cc1ccccc1)NC(=O)[C@H](CCC(N)=O)NC(=O)[C@H](CCC(N)=O)NC(=O)[C@@H]1CCCN1C(=O)[C@H](CCCCN)NC(=O)[C@@H]1CCCN1C(=O)[C@@H](N)CCCN=C(N)N)C(N)=O`, the outcome (Carcinogen: N-METHYL-N'-NITRO-N-NITROSOGUANIDINE, 70-25-7, Doses [Carcinogen]: 50 UG/ML IN DRINKING WATER FOR 25 WK, Doses [Promoter]: 0, 12 UG/KG BW 1/2 D FOR 26 WK BEGINNING POST CARCINOGEN TREATMENT (STUDY DURATION: 52 WK), Route [Carcinogen]: ORAL, Route [Promoter]: SUBCUTANEOUS, Species: RAT, Strain/Sex: WISTAR/MALE, FEMALE) is listed as “stomach: tumor”.
